Laboratory results reported in patent US6869589B1, “Cryptate compounds and methods for diagnosis and therapy” (Australian Nuclear Science & Technology Organization, priority 1999, dated 2005).

Assay: Biodistribution of ^64Cu complexes in balb/c mice
Procedure: The biodistribution of the ^64Cu complexes of compounds (1), (3) and (4) (0.10 ml intravenous injection) were evaluated in balb/c mice (5 animals per time point) at 3, 5, 10, 15, 20 and 30 minute time intervals. Biodistribution studies were performed in duplicate.

% injected dose per gram (BLADDER, 3 MIN): 13.15 % INJECTED DOSE PER GRAM
% injected dose per gram (BLADDER, 5 MIN): 28.05 % INJECTED DOSE PER GRAM
% injected dose per gram (BLADDER, 10 MIN): 69.91 % INJECTED DOSE PER GRAM
% injected dose per gram (BLADDER, 15 MIN): 8.17 % INJECTED DOSE PER GRAM
% injected dose per gram (BLADDER, 20 MIN): 16.38 % INJECTED DOSE PER GRAM
% injected dose per gram (BLADDER, 30 MIN): 25.38 % INJECTED DOSE PER GRAM
% injected dose per gram (BLOOD, 3 MIN): 8.25 % INJECTED DOSE PER GRAM
% injected dose per gram (BLOOD, 5 MIN): 7.08 % INJECTED DOSE PER GRAM
% injected dose per gram (BLOOD, 10 MIN): 4.41 % INJECTED DOSE PER GRAM
% injected dose per gram (BLOOD, 15 MIN): 2.71 % INJECTED DOSE PER GRAM
% injected dose per gram (BLOOD, 20 MIN): 1.40 % INJECTED DOSE PER GRAM
% injected dose per gram (BLOOD, 30 MIN): 1.07 % INJECTED DOSE PER GRAM
% injected dose per gram (BONE, 3 MIN): 1.60 % INJECTED DOSE PER GRAM
% injected dose per gram (BONE, 5 MIN): 1.56 % INJECTED DOSE PER GRAM
% injected dose per gram (BONE, 10 MIN): 1.28 % INJECTED DOSE PER GRAM
% injected dose per gram (BONE, 15 MIN): 1.60 % INJECTED DOSE PER GRAM
% injected dose per gram (BONE, 20 MIN): 0.89 % INJECTED DOSE PER GRAM
% injected dose per gram (BONE, 30 MIN): 0.65 % INJECTED DOSE PER GRAM
% injected dose per gram (GIT, 3 MIN): 2.62 % INJECTED DOSE PER GRAM
% injected dose per gram (GIT, 5 MIN): 2.16 % INJECTED DOSE PER GRAM
% injected dose per gram (GIT, 10 MIN): 1.49 % INJECTED DOSE PER GRAM
% injected dose per gram (GIT, 15 MIN): 1.07 % INJECTED DOSE PER GRAM
% injected dose per gram (GIT, 20 MIN): 0.89 % INJECTED DOSE PER GRAM
% injected dose per gram (GIT, 30 MIN): 0.80 % INJECTED DOSE PER GRAM
% injected dose per gram (HEART, 3 MIN): 3.25 % INJECTED DOSE PER GRAM
% injected dose per gram (HEART, 5 MIN): 2.66 % INJECTED DOSE PER GRAM
% injected dose per gram (HEART, 10 MIN): 1.60 % INJECTED DOSE PER GRAM
% injected dose per gram (HEART, 15 MIN): 1.08 % INJECTED DOSE PER GRAM
% injected dose per gram (HEART, 20 MIN): 0.51 % INJECTED DOSE PER GRAM
% injected dose per gram (HEART, 30 MIN): 0.47 % INJECTED DOSE PER GRAM
% injected dose per gram (KIDNEY, 3 MIN): 20.08 % INJECTED DOSE PER GRAM
% injected dose per gram (KIDNEY, 5 MIN): 18.62 % INJECTED DOSE PER GRAM
% injected dose per gram (KIDNEY, 10 MIN): 14.79 % INJECTED DOSE PER GRAM
% injected dose per gram (KIDNEY, 15 MIN): 7.52 % INJECTED DOSE PER GRAM
% injected dose per gram (KIDNEY, 20 MIN): 25.99 % INJECTED DOSE PER GRAM
% injected dose per gram (KIDNEY, 30 MIN): 30.26 % INJECTED DOSE PER GRAM
% injected dose per gram (LIVER, 3 MIN): 1.81 % INJECTED DOSE PER GRAM
% injected dose per gram (LIVER, 5 MIN): 1.59 % INJECTED DOSE PER GRAM
% injected dose per gram (LIVER, 10 MIN): 1.16 % INJECTED DOSE PER GRAM
% injected dose per gram (LIVER, 15 MIN): 0.64 % INJECTED DOSE PER GRAM
% injected dose per gram (LIVER, 20 MIN): 5.01 % INJECTED DOSE PER GRAM
% injected dose per gram (LIVER, 30 MIN): 5.76 % INJECTED DOSE PER GRAM
% injected dose per gram (LUNGS, 3 MIN): 5.85 % INJECTED DOSE PER GRAM
% injected dose per gram (LUNGS, 5 MIN): 5.28 % INJECTED DOSE PER GRAM
% injected dose per gram (LUNGS, 10 MIN): 2.84 % INJECTED DOSE PER GRAM
% injected dose per gram (LUNGS, 15 MIN): 2.09 % INJECTED DOSE PER GRAM
% injected dose per gram (LUNGS, 20 MIN): 1.13 % INJECTED DOSE PER GRAM
% injected dose per gram (LUNGS, 30 MIN): 0.92 % INJECTED DOSE PER GRAM
% injected dose per gram (MUSCLE, 3 MIN): 1.76 % INJECTED DOSE PER GRAM
% injected dose per gram (MUSCLE, 5 MIN): 2.10 % INJECTED DOSE PER GRAM
% injected dose per gram (MUSCLE, 10 MIN): 1.24 % INJECTED DOSE PER GRAM
% injected dose per gram (MUSCLE, 15 MIN): 1.73 % INJECTED DOSE PER GRAM
% injected dose per gram (MUSCLE, 20 MIN): 0.36 % INJECTED DOSE PER GRAM
% injected dose per gram (MUSCLE, 30 MIN): 1.27 % INJECTED DOSE PER GRAM
% injected dose per gram (SKIN, 3 MIN): 5.98 % INJECTED DOSE PER GRAM
% injected dose per gram (SKIN, 5 MIN): 6.46 % INJECTED DOSE PER GRAM
% injected dose per gram (SKIN, 10 MIN): 4.21 % INJECTED DOSE PER GRAM
% injected dose per gram (SKIN, 15 MIN): 2.76 % INJECTED DOSE PER GRAM
% injected dose per gram (SKIN, 20 MIN): 1.73 % INJECTED DOSE PER GRAM
% injected dose per gram (SKIN, 30 MIN): 1.42 % INJECTED DOSE PER GRAM
% injected dose per gram (SPLEEN, 3 MIN): 2.26 % INJECTED DOSE PER GRAM
% injected dose per gram (SPLEEN, 5 MIN): 2.17 % INJECTED DOSE PER GRAM
% injected dose per gram (SPLEEN, 10 MIN): 1.28 % INJECTED DOSE PER GRAM
% injected dose per gram (SPLEEN, 15 MIN): 0.67 % INJECTED DOSE PER GRAM
% injected dose per gram (SPLEEN, 20 MIN): 0.52 % INJECTED DOSE PER GRAM
% injected dose per gram (SPLEEN, 30 MIN): 0.35 % INJECTED DOSE PER GRAM
% injected dose per gram (STOMACH, 3 MIN): 3.53 % INJECTED DOSE PER GRAM
% injected dose per gram (STOMACH, 5 MIN): 3.04 % INJECTED DOSE PER GRAM
% injected dose per gram (STOMACH, 10 MIN): 1.84 % INJECTED DOSE PER GRAM
% injected dose per gram (STOMACH, 15 MIN): 0.89 % INJECTED DOSE PER GRAM
% injected dose per gram (STOMACH, 20 MIN): 0.70 % INJECTED DOSE PER GRAM
% injected dose per gram (STOMACH, 30 MIN): 0.65 % INJECTED DOSE PER GRAM
Compound: C1CNCC2CNCCNCC(CN1)CNCCNC2.[64Cu+2] [^64Cu-labelled compound (4)]
